# Experimental data from publication PMC11049977, “Antenna-Biased Odorant Receptor PstrOR17 Mediates Attraction of Phyllotreta striolata to (S)-Cis-Verbenol and (−)-Verbenone” (International Journal of Molecular Sciences, 2024).
# Target: T1, PstrOR17 (Phyllotreta striolata, UniProt A0A9N9TEW2)
# T1 construct: gene PHYEVI_LOCUS1381; full-length ORF (1182 bp, 393 residues) from antennal cDNA in pUAST.attb; expressed in Drosophila melanogaster ab3A empty neurons under DmelOR22-Gal4; endogenous fly Orco not mentioned for the assay; with Odorant receptor coreceptor (Drosophila melanogaster, endogenous in the ab3A neuron)
# T1 sequence (A0A9N9TEW2 1-393): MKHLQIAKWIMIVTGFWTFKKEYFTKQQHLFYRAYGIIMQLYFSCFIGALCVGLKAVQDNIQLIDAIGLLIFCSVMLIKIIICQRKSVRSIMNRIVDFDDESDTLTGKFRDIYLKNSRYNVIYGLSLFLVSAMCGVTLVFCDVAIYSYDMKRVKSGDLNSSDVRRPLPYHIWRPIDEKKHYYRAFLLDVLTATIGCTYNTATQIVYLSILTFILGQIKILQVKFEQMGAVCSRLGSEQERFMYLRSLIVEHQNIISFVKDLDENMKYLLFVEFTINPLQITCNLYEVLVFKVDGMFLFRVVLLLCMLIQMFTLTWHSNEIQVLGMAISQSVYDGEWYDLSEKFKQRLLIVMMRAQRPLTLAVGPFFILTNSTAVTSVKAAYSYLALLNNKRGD
# T1 sequence (Q9VNB5 1-486 partner): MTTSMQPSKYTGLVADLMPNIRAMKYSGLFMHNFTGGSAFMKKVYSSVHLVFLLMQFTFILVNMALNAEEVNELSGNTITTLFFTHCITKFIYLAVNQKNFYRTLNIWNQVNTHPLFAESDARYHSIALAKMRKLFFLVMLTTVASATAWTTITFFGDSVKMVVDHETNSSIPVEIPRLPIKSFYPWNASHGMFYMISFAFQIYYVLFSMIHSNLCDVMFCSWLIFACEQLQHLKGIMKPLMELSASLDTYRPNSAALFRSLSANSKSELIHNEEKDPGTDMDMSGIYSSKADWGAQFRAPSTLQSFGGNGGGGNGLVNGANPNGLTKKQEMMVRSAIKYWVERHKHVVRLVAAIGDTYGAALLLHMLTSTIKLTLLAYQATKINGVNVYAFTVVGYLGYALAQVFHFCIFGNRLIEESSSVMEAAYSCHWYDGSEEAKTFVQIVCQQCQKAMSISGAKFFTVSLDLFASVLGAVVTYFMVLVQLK
# Experiment: single sensillum recording, Drosophila empty neuron (ab3A)
# Assay type: cell-based
# Details: agonist, odour cartridge 10 μL on filter strip
# [1] = 10 μg/μL for profile, dose series 10^-5 to 10 mg/mL
Structure (SMILES),"single sensillum recording, Drosophila empty neuron (ab3A) [1]","single sensillum recording, Drosophila empty neuron (ab3A) (10 μg/μL)"
CC1=CC(=O)[C@H]2C[C@@H]1C2(C)C [(−)-verbenone],PstrOR17 responded to both (−)-verbenone and (S)-cis-verbenol in a dose-dependent manner,
C=C1CC[C@H]2C[C@@H]1C2(C)C [(−)-β-pinene],,moderate responses to five other odorants: α-pinene; (−)-β-pinene
CC1=C[C@H](O)[C@H]2C[C@@H]1C2(C)C [(S)-cis-verbenol],PstrOR17 responded to both (−)-verbenone and (S)-cis-verbenol in a dose-dependent manner,
CC1=CCC2CC1C2(C)C (stereo not drawn) [α-pinene],,PstrOR17 also conferred moderate responses to five other odorants: α-pinene
CC1=CCC(C(C)C)=CC1 [γ-terpinene],,moderate responses to five other odorants: α-pinene; (−)-β-pinene; γ-terpinene
